Experimental data as given in patent US11148990B2 (JOST CHEMICAL CO., priority 2019, dated 2021).

Assays:
Assay type in all cases: physicochemical
[1] = Compressibility: tablets on instrumented Carver press, no excipients, three-point bend stress; conditions: current experimental conditions
Protocol: Compressibility of a second sample of magnesium citrate glycinate was evaluated using an instrumented Carver press. Approximately 1.6 g, 5 mm thick tablets were compressed using the 0.4″×0.9″ rectangular tooling. No excipients were used. The sides of the tooling were slightly dusted with magnesium stearate in order to facilitate tablet ejection and eliminate sticking. The tablets were subjected to a three-point bend stress using a TA.XT2-Plus texture analyzer (from Stable Micro Systems of Surrey, England). Flexural strength and young modulus of the compact were measured. In addition, compact density was calculated from the weight and size measurements of the tablets.
An attempt was made to compare compressibility of magnesium citrate glycinate with those of individual salts, magnesium citrate tribasic and magnesium bis-glycinate.

[2] = Aqueous stability of 10% w/w solution standing for 24 hours, visual inspection; conditions: 10% w/w solution in water
[3] = Apparent density measurement
Protocol: In addition, particle size distribution and apparent density of di-magnesium citrate glycinate co-salt were measured.

SMILES	Compressibility, tablet formation [1]	Aqueous stability, change of clear and colorless solution [2]	Apparent density [3] [kg/m^3]
NCC(=O)[O-].NCC(=O)[O-].[Mg+2] [magnesium bis-glycinate]	no cohesive tablets were obtained		
NCC(=O)[O-].O=C([O-])CC(O)(CC(=O)[O-])C(=O)[O-].[Mg+2].[Mg+2] [magnesium citrate glycinate co-salt]		no change	1740
O=C([O-])CC(O)(CC(=O)[O-])C(=O)[O-].O=C([O-])CC(O)(CC(=O)[O-])C(=O)[O-].[Mg+2].[Mg+2].[Mg+2] [magnesium citrate tribasic]	no cohesive tablets were obtained		
